In patent publication US20260207565A1, “COMPOUNDS THAT INHIBIT PKMYT1” (Exelixis, Inc., priority 2022, published 2026):

Tests used:
PKMYT1 = biological target: T1, PKMYT1 (Homo sapiens, UniProt Q99640); test: ADP-Glo PKMYT1 ATP-depletion assay; conditions: 50 nM PKMYT1, 13.3 nM CDK1, 88 μM ATP, 120 minutes at RT, read-out: Biochemical IC50
T1 construct: PKMYT1 (93 kD, full length, N-terminal GST tag from Signal Chem); GST (N); purchased Signal Chem
T1 sequence (Q99640 1-499): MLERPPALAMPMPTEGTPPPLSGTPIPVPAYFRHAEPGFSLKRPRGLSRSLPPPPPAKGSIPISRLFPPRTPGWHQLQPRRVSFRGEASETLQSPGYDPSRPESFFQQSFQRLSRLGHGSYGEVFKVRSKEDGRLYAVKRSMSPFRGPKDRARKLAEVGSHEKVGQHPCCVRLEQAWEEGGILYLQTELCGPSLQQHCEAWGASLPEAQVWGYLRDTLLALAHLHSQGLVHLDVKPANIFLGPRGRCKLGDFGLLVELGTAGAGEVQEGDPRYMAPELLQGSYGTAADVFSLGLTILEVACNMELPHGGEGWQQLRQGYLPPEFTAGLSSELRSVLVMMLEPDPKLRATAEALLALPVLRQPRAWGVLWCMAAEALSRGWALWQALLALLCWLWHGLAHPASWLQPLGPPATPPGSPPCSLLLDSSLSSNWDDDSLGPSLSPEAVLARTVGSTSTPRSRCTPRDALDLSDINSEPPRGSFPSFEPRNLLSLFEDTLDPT
In short: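 Full-length N-GST PKMYT1 (50 nM) incubated 120 min at RT with full-length GST-CDK1 (13.3 nM) and 88 μM ATP in Hepes buffer containing Mg2+, Mn2+, DTT and BSA; DMSO <10%. ADP formed was converted via ADP-Glo to luminescence; IC50 derived.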

[1] = test system: phosphorylation of CDK1 at Thr14 in HCC1806 cells; test: Cell lysate AlphaLISA assay measuring inhibition of phosphorylation of CDK1 Thr14; assay type: cell-based; conditions: Homo sapiens, HCC1806, 4 h, compounds incubated 4 hours, AlphaLISA SureFire Ultra CDK1 Thr14, read-out: Cellular IC50
In short: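 HCC1806 cells treated with compound for 4 h at 37 °C, lysed, and phospho-CDK1 Thr14 quantified by AlphaLISA SureFire Ultra. Data normalized to DMSO (0% inhibition) and 3 μM reference compound; IC50 derived.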

Row | IC50 (PKMYT1) [µM] | IC50 [1] [µM] | SMILES
1 | ≥ 5 | 1 to 5 | Cc1ccc(O)c(C)c1-c1cc(C(=O)N(C)C)cc2cn[nH]c12 [Compound 39]
2 | ≥ 5 | ≥ 5 | Cc1ccc(O)c(C)c1-c1cc(C(N)=O)cc2cnn(C)c12 [Compound 40, 7-(3-hydroxy-2,6-dimethylphenyl)-1-methyl-indazole-5-carboxamide]
3 | 1 to 5 | 1 to 5 | Cc1ccc(O)c(C)c1-c1cc(C(N)=O)cn2ccnc12 [Compound 42, 8-(3-hydroxy-2,6-dimethylphenyl)imidazo[1,2-a]pyridine-6-carboxamide]
4 | 0.5 to 1 | ≥ 5 | Cc1c(O)cccc1-c1c(N)c(C(N)=O)cn2ccnc12 [Compound 43, 7-amino-8-(3-hydroxy-2-methylphenyl)imidazo[1,2-a]pyridine-6-carboxamide]
5 | 0.05 to 0.5 | 1 to 5 | Cc1ccc(O)c(C)c1-c1c(N)c(C(N)=O)cn2ccnc12 [Compound 46, 7-amino-8-(3-hydroxy-2,6-dimethylphenyl)imidazo[1,2-a]pyridine-6-carboxamide]
6 | 0.05 to 0.5 | ≥ 5 | Cc1cn2cc(C(N)=O)c(N)c(-c3cccc(O)c3C)c2n1 [Compound 47, 7-Amino-8-(3-hydroxy-2-methylphenyl)-2-methylimidazo[1,2-a]pyridine-6-carboxamide]
7 | 0.05 to 0.5 | ≥ 5 | Cc1nc2c(-c3cccc(O)c3C)c(N)c(C(N)=O)cn2c1C [Compound 48, 7-Amino-8-(3-hydroxy-2-methylphenyl)-2,3-dimethylimidazo[1,2-a]pyridine-6-carboxamide]
8 | 0.05 to 0.5 | ≥ 5 | Cc1c(O)cccc1-c1c(N)c(C(N)=O)cn2cc(C(F)(F)F)nc12 [Compound 49, 7-amino-8-(3-hydroxy-2-methylphenyl)-2-(trifluoromethyl)imidazo[1,2-a]pyridine-6-carboxamide]
9 | 0.05 to 0.5 | 0.5 to 1 | COC(=O)c1cnc2c(-c3cccc(O)c3C)c(N)c(C(N)=O)cn12 [Compound 50, Methyl 7-amino-6-carbamoyl-8-(3-hydroxy-2-methylphenyl)imidazo[1,2-a]pyridine-3-carboxylate]
10 | < 0.05 | 0.05 to 0.5 | Cc1c(O)cccc1-c1c(N)c(C(N)=O)nc2c1c(C(N)=O)nn2C [Compound 55, 5-amino-4-(3-hydroxy-2-methylphenyl)-1-methyl-1H-pyrazolo[3,4-b]pyridine-3,6-dicarboxamide]
11 | 0.05 to 0.5 | ≥ 5 | Cc1c(O)cccc1-c1c(N)c(C(N)=O)nc2c1cnn2C [Compound 56, 5-Amino-4-(3-hydroxy-2-methylphenyl)-1-methyl-pyrazolo[3,4-b]pyridine-6-carboxamide]
12 | 0.05 to 0.5 | 0.05 to 0.5 | Cc1c(O)cccc1-c1c(N)c(C(N)=O)nc2c1c(Br)nn2C [Compound 57, 5-Amino-3-bromo-4-(3-hydroxy-2-methylphenyl)-1-methyl-1H-pyrazolo[3,4-b]pyridine-6-carboxamide]
13 | < 0.05 | 0.05 to 0.5 | Cn1cc(C#N)c2c(-c3cncc(Cl)c3Cl)c(N)c(C(N)=O)nc21 [Compound 66, 5-Amino-3-cyano-4-(4,5-dichloropyridin-3-yl)-1-methyl-1H-pyrrolo[2,3-b]pyridine-6-carboxamide]
14 | < 0.05 | < 0.05 | COc1c(F)cncc1-c1c(N)c(C(N)=O)nc2c1c(C#N)cn2C [Compound 67, 5-Amino-3-cyano-4-(5-fluoro-4-methoxypyridin-3-yl)-1-methyl-1H-pyrrolo[2,3-b]pyridine-6-carboxamide]
15 | < 0.05 | < 0.05 | CCn1nc(C(=O)NC)c2c(-c3c(C)ccc(O)c3C)c(N)c(C(N)=O)nc21 [Compound 73, 5-Amino-1-ethyl-4-(3-hydroxy-2,6-dimethylphenyl)-N^3-methyl-1H-pyrazolo[3,4-b]pyridine-3,6-dicarboxamide]

Second part, the compound before the results:

Row | SMILES | IC50 (PKMYT1) [µM] | IC50 [1] [µM]
16 | Cc1ccc(O)c(C)c1-c1cc(C(N)=O)nc2c1cnn2C [Compound 17, 4-(3-hydroxy-2,6-dimethylphenyl)-1-methyl-pyrazolo[3,4-b]pyridine-6-carboxamide] | 1 to 5 | ≥ 5
17 | Cc1ccc(O)c(C)c1-c1cc(C(N)=O)nc2cnn(C)c12 [Compound 18, 7-(3-hydroxy-2,6-dimethylphenyl)-1-methyl-pyrazolo[4,3-b]pyridine-5-carboxamide] | 1 to 5 | ≥ 5
18 | CNC(=O)c1cc(-c2c(C)ccc(O)c2C)c2[nH]ncc2n1 [Compound 19, 7-(3-hydroxy-2,6-dimethylphenyl)-N-methyl-1H-pyrazolo[4,3-b]pyridine-5-carboxamide] | ≥ 5 | ≥ 5
19 | Cc1ccc(O)c(C)c1-c1cc(C(=O)N(C)C)nc2cn[nH]c12 [Compound 20] | ≥ 5 | ≥ 5
20 | Cc1ccc(O)c(C)c1-c1cc(C(N)=O)nc2c1ccn2C [Compound 21, 4-(3-hydroxy-2,6-dimethylphenyl)-1-methyl-pyrrolo[2,3-b]pyridine-6-carboxamide] | 0.5 to 1 | ≥ 5
21 | Cc1ccc(O)c(C)c1-c1cc(C(N)=O)nc2c1c(C#N)cn2C [Compound 22, 3-cyano-4-(3-hydroxy-2,6-dimethylphenyl)-1-methyl-pyrrolo[2,3-b]pyridine-6-carboxamide] | < 0.05 | 0.05 to 0.5
22 | Cc1ccc(O)c(C)c1-c1cc(C(N)=O)nc2c1c(Br)cn2C [Compound 24] | 0.05 to 0.5 | 1 to 5
23 | Cc1c(O)cccc1-c1cc(C(N)=O)nc2c1c(C#N)cn2C [Compound 28, 3-cyano-4-(3-hydroxy-2-methylphenyl)-1-methyl-pyrrolo[2,3-b]pyridine-6-carboxamide] | 0.05 to 0.5 | 0.5 to 1
24 | CCn1cc(C#N)c2c(-c3c(C)ccc(O)c3C)cc(C(N)=O)nc21 [Compound 29, 3-cyano-1-ethyl-4-(3-hydroxy-2,6-dimethylphenyl)pyrrolo[2,3-b]pyridine-6-carboxamide] | < 0.05 | < 0.05
25 | Cc1ccc(O)c(C)c1-c1cc(C(N)=O)cc2c1cnn2C [Compound 35, 4-(3-hydroxy-2,6-dimethylphenyl)-1-methyl-indazole-6-carboxamide] | 1 to 5 | ≥ 5
26 | Cc1ccc(O)c(C)c1-c1cc(C(N)=O)cc2nn(C)cc12 [Compound 36, 4-(3-hydroxy-2,6-dimethylphenyl)-2-methyl-indazole-6-carboxamide] | 1 to 5 | ≥ 5
27 | Cc1ccc(O)c(C)c1-c1cc(C(N)=O)cc2cn[nH]c12 [Compound 37, 7-(3-hydroxy-2,6-dimethylphenyl)-1H-indazole-5-carboxamide] | 1 to 5 | 1 to 5
28 | CNC(=O)c1cc(-c2c(C)ccc(O)c2C)c2[nH]ncc2c1 [Compound 38] | ≥ 5 | 1 to 5
